In patent US20250302913A1, “LACRIPEP PROMOTES NEUROREGENERATION AND MAINTAINS EPITHELIAL PROGENITOR CELL IDENTITY” (The Regents of The University of California, priority 2022, published 2025):

Columns and labels:
ZO1 = assay: Immunofluorescent quantification of tight junction protein ZO1 in corneal epithelium; assay type: in vivo, mouse; details: day 15; Aire KO cornea
Excerpt: As dry eye results in disruption of ocular surface integrity resulting in cornea barrier dysfunction and, consequently, fluid loss and pathogen invasion (11), we next determined whether lacripep maintains corneal epithelial architecture by analyzing lissamine green uptake at day 7 and 15. […] Restoration of barrier function was further confirmed by analyzing the superficial epithelial layers for the tight junction protein ZO1 which is essential to the structural integrity of the corneal epithelium (12).
Immunohistological and immunofluorescent analyses of cornea and lacrimal gland samples were performed as previously described (8). […]
For immunofluorescent analysis, 7 or 20 μm tissue sections were incubated with the following primary antibodies: mouse anti-ZO1 conjugated to Alexa594 (1:1000, Life Technologies, Cat 339194), rabbit anti-KRT6A (1:800, Cell Signaling, Cat 4912S), chicken anti-KRT14 (1:1500, Santa Cruz, Cat 515882), rat anti-Ki67 (1:200, Biolegend, 652405), rat anti-CD4 (1:200, Santa Cruz), rabbit anti-TUBB3 (1:500, Cell Signaling, Cat 5568S), and rat anti-Ecadherin (1:300, Life Technologies, Cat 131900). Antibodies were detected using Cy2-, Cy3- or Cy5-conjugated secondary Fab fragment antibodies (Jackson Laboratories), and nuclei were stained with Hoechst 33342 (1:3000, Sigma-Aldrich). […]
Quantification of tight junction protein ZO1. […]

[1] = test system: corneal nerves of Aire KO corneas; assay: Corneal nerve density (GAP43, TUBB3, SP, CGRP immunolabeling); assay type: in vivo, mouse
Excerpt: To test for changes in innervation, corneas isolated from the four treatment groups at day 15 were immunostained for growth-associated protein 43 (GAP43), a marker of remodeling axons (25), along with two common sensory neuropeptides, substance P (SP) and calcitonin-gene related protein (CGRP). SP and CGRP are differentially expressed to carry out discrete functions: SP is released in response to trigeminal activation to modulate tear secretion and goblet cell function (26) while CGRP is involved in multiple homeostatic processes, including corneal epithelium regeneration and regulation of vasculature (27, 28). […] Thus, lacripep treatment successfully regenerates the sensory nerve supply to the inflamed cornea during disease progression.
Given nerve-epithelial interactions are essential for mediating physiological tear secretion, we next assessed innervation to corneal epithelial cell layers at 2 wks of treatment (day 15, 7 wks of age) through immunofluorescent analysis.
Next, we questioned the timing of epithelial reinnervation in response to lacripep treatment by analyzing the nerve supply at the 7 day time point (6 wks of age) through 3D imaging of intact whole mount corneas (FIG. 3A). […] Of note, the pro-regenerative cellular changes after axon injury result in neurons switching from an active, electrically transmitting state back to an electrically silent, growth-competent state (29-31), thereby likely impairing increased basal tear production at the 7 day time point for lacripep treated mice compared to untreated Aire KO controls (FIG. 1B).
For corneal whole mount staining, PFA fixed corneas were blocked and incubated in primary antibodies for 48 hr at 4° C.: Mouse anti-TUBB3 (1:300, R&D, MAB 1195), rabbit anti-GAP43 (1:400, Novus bio, NB 300-143), goat anti-CGRP (1:300, Thermo fisher, PA1-85250), and rat anti-Substance P (1:500, Millipore, MAB 356). This was followed by extensive washes in PBST before tissue was incubated in secondary antibodies overnight at 4° C.
Quantification of corneal epithelial nerve density and synapses. Tissue sections: TUBB3+ nerve density within 300 μm sections of central cornea epithelial ROI was quantified by applying Tsai's thresholding method (Moments), with integrated densities within the ROI of the thresholded image being recorded. Corneal whole mounts: The density of nerves expressing GAP43, TUBB3, or GAP43 and TUBB3 (% Area of 354 μm×396 μm) was quantified from central cornea images of whole mount cornea and plotted in a stacked bar graph to visualize the proportion of each of the three nerve types. Similarly, numbers of synapses marked by expression of GAP43, TUBB3, or GAP43 and TUBB3 were counted per respective region of central cornea (100 μm2) and plotted in a stacked bar graph. The density of GAP43+ nerves were quantified from the whole mount cornea images (354 μm×396 μm) applying Tsai's threshold as described above.
3D reconstruction of nerve fibers. Acquired confocal Z-stacks comprising epithelial and stroma were reconstructed into 3D images using Imaris image analysis software (Bitplane AG, Zurich, Switzerland). The surface of the nuclei (Hoechst) and nerves (TUBB3/GAP43/SP/CGRP) were segmented using the background subtraction threshold. Each channel was obtained separately. Touching nuclei were split by the calculated seed points inside each area.

[2] = test system: Rest, Isl1, Rreb1 regulons; assay: iRegulon transcription factor-gene target regulatory network analysis; design: species or system mouse; details: day 7; lacripep vs PBS; NES>3
Excerpt: To identify candidate transcription factors that regulate these gene sets, we performed transcription factor (TF)-gene target regulatory network analysis using iRegulon (37). iRegulon identifies transcription factor-binding motifs that are enriched in the genomic regions of a query gene set and predicts transcription factors that bind to them. […] ISL1 plays an essential role in the generation of sensory and sympathetic neurons (38 39), REST is a master regulator of neurogenesis that plays a role in modulating synaptic plasticity (40-42) and RREB1 regulates axon injury (43). […] The Isl1 exclusive gene set was also extensively enriched in genes involved with functional and structural nerve-mediated processes including visual perception (P=3.5E-27, e.g., Capb4, Vsx1), response to stimulus (P=9.7E-19; e.g., Slc17a7, Ush2a), synapse (P=9.4E-8, e.g. Magi2, Synpr) and neuron projection (P=6.4E-6, e.g., Cdh23, Kif1a) (FIG. 4F).
To identify regulatory networks underlying the impact of lacripep on tissue regeneration, we used the cytoscape application iRegulon (37) to predict master regulators, i.e., transcription factors whose regulons (transcriptional target sets) are highly enriched with the input gene list.

## Ac-KQFIENGSEFAQKLLKKFSLLKPWA-NH2 [lacripep, amino terminus acetylated, carboxyl terminus aminated]
ZO1
  ZO1 expression in superficial epithelial layers: mimicked that of WT controls
[1]; day 7, WT 37%
  proportion of GAP43+ TUBB3+ nerves in central cornea: 26%
[1]; day 7, WT 43%
  proportion of GAP43+ nerves in central cornea: 50%
[1]; day 7, whole mount
  nerve density of central cornea relative to WT tissue: 45 % of the nerve density of WT tissue
[1]; day 15
  nerve density level: returning to that of WT cornea
[1]; day 15, central corneal cross-sections
  innervation of epithelial cell layers (TUBB3+ axons): resembled that of WT tissue
[1]; day 15, whole mount cornea
  density of GAP43+ nerve fibers expressing SP and CGRP: nearly equivalent to that of the WT controls
[2]
  upregulated target genes of Isl1 regulon: 394 genes
  upregulated target genes of Rest regulon: 184 genes
  upregulated target genes of Rreb1 regulon: 254 genes
